From ChEMBL document CHEMBL1201862, “PubChem BioAssay data set” (2004) come the findings set out here.

Calls of active or inactive are those of the source. Where only a bound is given, the exact number is not on record here.

Data set [1] has as its target Cytochrome P450 3A4 (Homo sapiens, UniProt P08684).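 Further: CYP3A4 tested as one member of a cytochrome P450 panel screen.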
Data set [2] addresses Cytochrome P450 2D6 (Homo sapiens, UniProt P10635).
The target of data set [3] is T1, Microphthalmia-associated transcription factor (Homo sapiens, UniProt O75030).
T1 sequence (O75030 whole entry): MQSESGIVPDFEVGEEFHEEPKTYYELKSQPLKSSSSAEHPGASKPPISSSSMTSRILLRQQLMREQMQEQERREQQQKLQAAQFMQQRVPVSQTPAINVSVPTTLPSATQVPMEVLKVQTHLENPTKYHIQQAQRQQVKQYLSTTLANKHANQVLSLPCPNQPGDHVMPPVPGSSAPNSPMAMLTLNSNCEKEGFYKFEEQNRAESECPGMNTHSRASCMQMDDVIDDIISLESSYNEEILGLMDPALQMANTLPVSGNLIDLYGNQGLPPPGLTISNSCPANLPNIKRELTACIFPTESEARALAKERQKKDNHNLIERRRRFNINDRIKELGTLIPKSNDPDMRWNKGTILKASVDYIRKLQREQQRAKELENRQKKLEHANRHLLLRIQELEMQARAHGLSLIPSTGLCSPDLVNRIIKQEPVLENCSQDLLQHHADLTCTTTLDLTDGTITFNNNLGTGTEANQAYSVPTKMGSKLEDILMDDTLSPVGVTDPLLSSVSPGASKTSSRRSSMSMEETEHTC
Nature of the data set: TRPM1 promoter luciferase signal decrease, dose response, MITF inhibitor project, cell-based, SK-MEL-5, cherry-picked, set 3 (AID 493073).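 Further: SK-MEL-5 melanoma cells with luciferase driven by the MITF target TRPM1 promoter.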 Type of data set: functional.

Data set [4] relates to A-375. Description: A375 melanoma cell viability reduction, dose response, counter-screen for MITF modulator project, cherry-pick samples, set 2 (AID 540335). The format is functional, cell-based. To be noted: Homo sapiens.
For data set [5], the system named is HEK293. Description: cells. To be noted: Homo sapiens.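 Further: cells exposed to compound for 14 hours overnight before viability readout.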
In data set [6] the target is T2, Nucleotide-binding oligomerization domain-containing protein 1 (Homo sapiens, UniProt Q9Y239).
T2 sequence (Q9Y239 whole entry): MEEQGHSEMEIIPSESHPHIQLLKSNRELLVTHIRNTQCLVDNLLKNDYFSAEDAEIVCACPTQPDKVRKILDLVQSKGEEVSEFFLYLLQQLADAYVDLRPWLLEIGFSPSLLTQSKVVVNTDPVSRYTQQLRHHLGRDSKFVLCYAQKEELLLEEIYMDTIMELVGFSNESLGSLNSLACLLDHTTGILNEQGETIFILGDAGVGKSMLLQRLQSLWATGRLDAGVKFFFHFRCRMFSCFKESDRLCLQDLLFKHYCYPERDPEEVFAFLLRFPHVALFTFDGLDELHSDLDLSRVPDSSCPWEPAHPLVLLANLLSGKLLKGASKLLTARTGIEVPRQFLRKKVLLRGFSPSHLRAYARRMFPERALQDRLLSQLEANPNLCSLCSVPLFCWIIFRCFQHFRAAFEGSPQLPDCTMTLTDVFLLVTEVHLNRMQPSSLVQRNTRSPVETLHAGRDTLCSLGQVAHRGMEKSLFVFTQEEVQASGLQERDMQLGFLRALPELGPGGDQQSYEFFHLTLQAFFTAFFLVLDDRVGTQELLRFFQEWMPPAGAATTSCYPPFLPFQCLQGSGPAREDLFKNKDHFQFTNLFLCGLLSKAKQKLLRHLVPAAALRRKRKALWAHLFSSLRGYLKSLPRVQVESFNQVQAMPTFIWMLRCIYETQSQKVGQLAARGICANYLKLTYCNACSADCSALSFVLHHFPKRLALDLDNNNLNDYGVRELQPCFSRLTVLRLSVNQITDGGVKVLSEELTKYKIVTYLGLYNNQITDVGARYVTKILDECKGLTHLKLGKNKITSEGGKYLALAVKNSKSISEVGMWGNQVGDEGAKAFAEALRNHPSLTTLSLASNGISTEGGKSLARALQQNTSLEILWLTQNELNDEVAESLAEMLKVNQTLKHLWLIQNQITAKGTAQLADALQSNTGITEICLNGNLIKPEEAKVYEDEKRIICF
Nature of the data set: NOD1 signaling inhibitors, SAR follow-up, revised (AID 2333). The format is functional.

A short description of data set [7]: cytotoxicity in HEK-293T cells, dose response, cytotoxicity control for TCR NF-kB inhibitor project, luminescence, T-cell screen hits (AID 489026).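 Further: cells exposed to compound about 14 hours before the viability readout.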 The format is functional, cell-based.
For data set [8], the target named is Tumor necrosis factor (Homo sapiens, UniProt P01375). Nature of the data set: TNFa-triggered NF-kB activation inhibitors, SAR follow-up, cell-based, revised (AID 2337). The format is functional.
In data set [9] the target is Cytochrome P450 2C19 (Homo sapiens, UniProt P33261). Description: Cytochrome panel assay with activity outcomes. Panel member name: p450-cyp2c19 Compounds with AC50 equal or less than 10 uM are considered active. Type of data set: functional. To be noted: read-out: AC50.
A short description of data set [10]: insulin promoter down-regulators in MIN6 cells, imaging, high-content screening, mouse beta cells (AID 1628). The format is functional.
Data set [11] is described as follows: cytotoxicity in MIN6 insulinoma cells, dose response, cytotoxicity control, cell-based, mouse insulinoma (AID 2122).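 Further: confirmatory high-throughput counterscreen run to flag cytotoxic compounds; mouse MIN-6 beta cells carrying an insulin promoter eGFP reporter.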 The format is functional.
Data set [12] addresses Cytochrome P450 2C9 (Homo sapiens, UniProt P11712).
Data set [13] addresses Nonstructural protein 1 (Influenza A virus, UniProt Q194T2). Type of data set: functional, Influenza A virus (A/California/07/2009(H1N1)).
Data set [14] is described as follows: Counterscreen for AddAB inhibitors: absorbance-based bacterial cell-based high throughput dose response assay for inhibitors of bacterial viability. [Related pubchem assays (depositor defined):AID435030, AID449728, AID449731, AID488942, AID488955, AID488956]. Type of data set: functional.
In data set [15] the target is T3, Exodeoxyribonuclease V (Escherichia coli (strain K12), UniProt P04993+P07648+P08394).
T3 sequence (P04993 whole entry): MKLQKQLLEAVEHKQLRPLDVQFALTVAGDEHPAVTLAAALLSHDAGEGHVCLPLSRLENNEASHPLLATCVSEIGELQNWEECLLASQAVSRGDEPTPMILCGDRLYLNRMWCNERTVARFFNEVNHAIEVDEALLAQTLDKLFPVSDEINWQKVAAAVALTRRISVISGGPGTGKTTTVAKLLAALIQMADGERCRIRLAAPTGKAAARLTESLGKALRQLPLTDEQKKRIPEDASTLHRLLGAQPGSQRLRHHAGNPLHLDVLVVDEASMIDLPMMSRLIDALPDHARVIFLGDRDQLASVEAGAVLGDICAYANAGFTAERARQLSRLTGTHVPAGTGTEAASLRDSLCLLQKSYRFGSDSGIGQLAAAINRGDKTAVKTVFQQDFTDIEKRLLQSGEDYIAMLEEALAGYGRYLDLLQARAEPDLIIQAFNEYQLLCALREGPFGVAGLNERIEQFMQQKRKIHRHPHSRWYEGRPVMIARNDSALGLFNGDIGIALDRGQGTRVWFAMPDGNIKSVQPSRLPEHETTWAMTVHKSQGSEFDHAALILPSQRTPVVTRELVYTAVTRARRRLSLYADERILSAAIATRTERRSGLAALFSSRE
T3 sequence (P07648 whole entry): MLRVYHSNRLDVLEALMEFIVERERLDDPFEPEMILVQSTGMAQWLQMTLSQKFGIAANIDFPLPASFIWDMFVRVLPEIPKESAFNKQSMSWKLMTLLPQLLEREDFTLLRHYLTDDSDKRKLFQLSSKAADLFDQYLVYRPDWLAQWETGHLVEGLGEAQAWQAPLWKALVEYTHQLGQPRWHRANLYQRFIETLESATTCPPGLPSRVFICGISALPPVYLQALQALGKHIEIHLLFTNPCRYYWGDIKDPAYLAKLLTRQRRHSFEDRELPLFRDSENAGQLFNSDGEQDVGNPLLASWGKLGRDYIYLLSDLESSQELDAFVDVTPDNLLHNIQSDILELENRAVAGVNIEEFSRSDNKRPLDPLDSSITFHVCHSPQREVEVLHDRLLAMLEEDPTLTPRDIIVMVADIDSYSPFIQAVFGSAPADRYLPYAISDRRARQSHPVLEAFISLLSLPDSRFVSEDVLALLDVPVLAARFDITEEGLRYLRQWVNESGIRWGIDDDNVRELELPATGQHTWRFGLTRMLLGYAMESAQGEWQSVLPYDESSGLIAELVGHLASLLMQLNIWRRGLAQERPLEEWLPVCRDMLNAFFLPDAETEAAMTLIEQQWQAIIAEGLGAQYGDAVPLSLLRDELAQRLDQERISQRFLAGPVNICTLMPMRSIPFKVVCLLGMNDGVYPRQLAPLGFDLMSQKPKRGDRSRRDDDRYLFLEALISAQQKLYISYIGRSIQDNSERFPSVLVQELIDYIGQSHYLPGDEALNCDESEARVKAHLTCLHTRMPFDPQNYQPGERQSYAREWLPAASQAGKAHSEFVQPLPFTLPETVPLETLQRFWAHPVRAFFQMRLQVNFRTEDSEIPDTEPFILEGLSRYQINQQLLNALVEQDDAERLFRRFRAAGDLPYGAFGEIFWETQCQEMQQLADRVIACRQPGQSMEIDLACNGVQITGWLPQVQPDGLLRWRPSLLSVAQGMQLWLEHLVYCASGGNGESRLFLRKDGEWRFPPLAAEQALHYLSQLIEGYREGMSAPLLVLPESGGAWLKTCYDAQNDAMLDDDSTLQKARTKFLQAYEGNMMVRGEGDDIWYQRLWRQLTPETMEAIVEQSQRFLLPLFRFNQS
T3 sequence (P08394 whole entry): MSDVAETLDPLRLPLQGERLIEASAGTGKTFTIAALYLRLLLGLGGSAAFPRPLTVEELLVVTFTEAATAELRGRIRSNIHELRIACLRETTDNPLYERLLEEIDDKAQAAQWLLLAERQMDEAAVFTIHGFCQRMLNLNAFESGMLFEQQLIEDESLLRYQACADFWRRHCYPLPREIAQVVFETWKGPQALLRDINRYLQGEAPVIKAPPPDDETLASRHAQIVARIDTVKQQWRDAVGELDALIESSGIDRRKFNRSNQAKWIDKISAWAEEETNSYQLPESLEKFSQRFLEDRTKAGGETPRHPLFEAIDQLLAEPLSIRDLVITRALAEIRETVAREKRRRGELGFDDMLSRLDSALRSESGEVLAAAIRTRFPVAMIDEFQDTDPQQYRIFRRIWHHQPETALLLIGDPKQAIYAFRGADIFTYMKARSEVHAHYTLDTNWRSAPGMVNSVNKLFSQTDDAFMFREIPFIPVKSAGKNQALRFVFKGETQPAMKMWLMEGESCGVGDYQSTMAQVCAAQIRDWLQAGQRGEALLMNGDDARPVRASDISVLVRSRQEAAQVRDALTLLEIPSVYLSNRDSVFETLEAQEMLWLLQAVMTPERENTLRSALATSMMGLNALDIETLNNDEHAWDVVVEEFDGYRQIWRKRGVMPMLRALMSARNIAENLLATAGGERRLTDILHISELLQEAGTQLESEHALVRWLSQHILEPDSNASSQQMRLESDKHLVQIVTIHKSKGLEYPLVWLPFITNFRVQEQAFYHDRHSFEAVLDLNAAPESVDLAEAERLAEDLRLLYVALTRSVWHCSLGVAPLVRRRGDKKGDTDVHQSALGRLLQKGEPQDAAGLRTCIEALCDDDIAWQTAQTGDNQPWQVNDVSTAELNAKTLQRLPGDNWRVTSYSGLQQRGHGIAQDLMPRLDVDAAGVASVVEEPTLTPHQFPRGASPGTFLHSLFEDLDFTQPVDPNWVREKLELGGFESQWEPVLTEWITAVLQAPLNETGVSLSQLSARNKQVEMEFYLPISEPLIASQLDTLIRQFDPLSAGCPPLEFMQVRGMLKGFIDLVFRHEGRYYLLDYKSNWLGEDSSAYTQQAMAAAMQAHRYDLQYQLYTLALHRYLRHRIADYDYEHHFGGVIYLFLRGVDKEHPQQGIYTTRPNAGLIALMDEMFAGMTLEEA
Nature of the data set: E. coli RecBCD inhibitors, dose response, counter-screen for AddAB inhibitor project, absorbance, V66 E. coli, mutant T4 phage (AID 492957). Type of data set: functional, cell-based, Escherichia coli str. K-12 substr. MG1655.

Data set [16] concerns the target SUMO E1/E2 (Homo sapiens, UniProt P63279+Q9UBE0+Q9UBT2). Nature of the data set: SAR analysis of SUMOylation using HTRF in an in-Vitro dose response assay. [Related pubchem assays (depositor defined):AID2006, AID2011, AID2018, AID2069, AID2658]. The format is functional. Background: In TR-FRET formats the signal depends on donor and acceptor labels being close together.

Sequence of Cytochrome P450 3A4 (P08684 whole entry): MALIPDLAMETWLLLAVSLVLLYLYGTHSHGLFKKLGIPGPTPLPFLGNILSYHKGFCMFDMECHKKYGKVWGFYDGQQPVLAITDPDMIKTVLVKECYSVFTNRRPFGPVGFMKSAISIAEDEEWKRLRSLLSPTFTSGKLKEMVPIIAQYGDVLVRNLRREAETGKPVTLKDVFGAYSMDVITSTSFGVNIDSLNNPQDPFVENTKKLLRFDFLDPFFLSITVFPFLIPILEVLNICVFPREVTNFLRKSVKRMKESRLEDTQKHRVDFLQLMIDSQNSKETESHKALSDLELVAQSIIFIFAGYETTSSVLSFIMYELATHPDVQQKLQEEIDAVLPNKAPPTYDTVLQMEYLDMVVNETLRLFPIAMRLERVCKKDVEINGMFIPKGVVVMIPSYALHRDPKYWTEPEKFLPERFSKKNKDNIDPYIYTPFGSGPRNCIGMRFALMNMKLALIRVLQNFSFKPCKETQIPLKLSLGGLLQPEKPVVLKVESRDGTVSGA
Sequence of Cytochrome P450 2D6 (P10635 whole entry): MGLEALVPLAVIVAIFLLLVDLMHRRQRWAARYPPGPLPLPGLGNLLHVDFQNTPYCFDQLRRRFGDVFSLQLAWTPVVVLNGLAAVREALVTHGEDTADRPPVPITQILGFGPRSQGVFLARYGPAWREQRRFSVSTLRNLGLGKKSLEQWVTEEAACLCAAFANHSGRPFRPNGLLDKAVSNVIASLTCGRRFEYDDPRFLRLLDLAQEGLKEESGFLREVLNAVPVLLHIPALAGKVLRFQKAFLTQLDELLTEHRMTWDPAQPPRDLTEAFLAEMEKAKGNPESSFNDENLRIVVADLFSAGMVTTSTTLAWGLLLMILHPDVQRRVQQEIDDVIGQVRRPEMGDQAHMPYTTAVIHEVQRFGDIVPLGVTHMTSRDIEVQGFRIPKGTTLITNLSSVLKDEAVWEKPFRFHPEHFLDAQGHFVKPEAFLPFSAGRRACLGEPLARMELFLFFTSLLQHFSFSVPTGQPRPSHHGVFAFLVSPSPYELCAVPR
Sequence of SUMO E1/E2 (Q9UBE0 whole entry): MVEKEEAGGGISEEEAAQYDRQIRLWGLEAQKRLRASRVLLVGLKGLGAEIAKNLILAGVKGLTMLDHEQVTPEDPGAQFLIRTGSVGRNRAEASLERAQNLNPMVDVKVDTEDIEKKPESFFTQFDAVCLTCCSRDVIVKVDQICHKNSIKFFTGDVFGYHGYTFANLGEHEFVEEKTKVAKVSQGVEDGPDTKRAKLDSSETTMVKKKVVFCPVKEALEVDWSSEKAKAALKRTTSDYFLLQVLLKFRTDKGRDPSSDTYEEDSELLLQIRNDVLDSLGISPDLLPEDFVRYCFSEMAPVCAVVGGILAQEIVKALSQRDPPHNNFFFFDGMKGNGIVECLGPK
Sequence of SUMO E1/E2 (Q9UBT2 whole entry): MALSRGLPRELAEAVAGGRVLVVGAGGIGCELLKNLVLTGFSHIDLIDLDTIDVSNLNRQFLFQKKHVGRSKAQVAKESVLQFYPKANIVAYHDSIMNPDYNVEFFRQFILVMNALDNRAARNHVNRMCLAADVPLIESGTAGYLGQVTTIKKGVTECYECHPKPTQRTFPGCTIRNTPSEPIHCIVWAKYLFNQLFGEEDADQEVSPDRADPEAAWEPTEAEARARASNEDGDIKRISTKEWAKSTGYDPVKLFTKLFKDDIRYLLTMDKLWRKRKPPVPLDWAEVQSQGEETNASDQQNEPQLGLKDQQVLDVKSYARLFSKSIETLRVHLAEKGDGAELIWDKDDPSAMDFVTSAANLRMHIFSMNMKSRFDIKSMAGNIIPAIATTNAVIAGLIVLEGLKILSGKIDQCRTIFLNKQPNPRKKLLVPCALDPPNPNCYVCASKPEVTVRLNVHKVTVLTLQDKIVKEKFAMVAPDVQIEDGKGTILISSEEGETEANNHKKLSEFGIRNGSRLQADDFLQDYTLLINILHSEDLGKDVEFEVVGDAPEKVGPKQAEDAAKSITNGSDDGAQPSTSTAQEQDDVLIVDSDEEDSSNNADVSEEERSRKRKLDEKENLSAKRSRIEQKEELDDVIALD
Sequence of SUMO E1/E2 (P63279 whole entry): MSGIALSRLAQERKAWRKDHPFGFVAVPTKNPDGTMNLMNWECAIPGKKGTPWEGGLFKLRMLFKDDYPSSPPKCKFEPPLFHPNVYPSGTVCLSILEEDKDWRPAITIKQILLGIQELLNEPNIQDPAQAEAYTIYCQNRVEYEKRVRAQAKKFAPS
Sequence of Cytochrome P450 2C19 (P33261 whole entry): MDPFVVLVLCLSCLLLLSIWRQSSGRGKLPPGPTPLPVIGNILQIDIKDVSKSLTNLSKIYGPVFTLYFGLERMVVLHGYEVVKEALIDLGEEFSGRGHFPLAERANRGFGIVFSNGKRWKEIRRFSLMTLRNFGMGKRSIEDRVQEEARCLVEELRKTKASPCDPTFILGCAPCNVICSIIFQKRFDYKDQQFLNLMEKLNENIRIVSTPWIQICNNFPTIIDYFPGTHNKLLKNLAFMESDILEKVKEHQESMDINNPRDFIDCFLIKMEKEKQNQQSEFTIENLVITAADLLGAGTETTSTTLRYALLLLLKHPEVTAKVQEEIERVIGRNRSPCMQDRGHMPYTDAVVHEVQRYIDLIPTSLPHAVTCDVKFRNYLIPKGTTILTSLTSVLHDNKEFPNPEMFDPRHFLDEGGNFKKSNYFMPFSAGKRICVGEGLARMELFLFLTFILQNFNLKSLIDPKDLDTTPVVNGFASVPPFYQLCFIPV
Sequence of Cytochrome P450 2C9 (P11712 whole entry): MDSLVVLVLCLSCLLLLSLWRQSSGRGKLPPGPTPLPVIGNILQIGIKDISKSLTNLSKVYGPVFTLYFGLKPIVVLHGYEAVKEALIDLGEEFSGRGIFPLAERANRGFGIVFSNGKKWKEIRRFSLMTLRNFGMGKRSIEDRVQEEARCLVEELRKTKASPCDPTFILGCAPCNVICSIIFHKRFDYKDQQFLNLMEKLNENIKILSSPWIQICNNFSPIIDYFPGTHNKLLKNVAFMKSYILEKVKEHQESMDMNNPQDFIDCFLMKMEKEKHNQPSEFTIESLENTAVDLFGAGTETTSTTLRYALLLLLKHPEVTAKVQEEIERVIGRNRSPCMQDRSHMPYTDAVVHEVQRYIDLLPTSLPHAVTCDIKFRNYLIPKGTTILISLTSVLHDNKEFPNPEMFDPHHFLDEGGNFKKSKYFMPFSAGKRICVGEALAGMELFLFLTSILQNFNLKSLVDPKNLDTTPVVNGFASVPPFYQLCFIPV
Sequence of Tumor necrosis factor (P01375 whole entry): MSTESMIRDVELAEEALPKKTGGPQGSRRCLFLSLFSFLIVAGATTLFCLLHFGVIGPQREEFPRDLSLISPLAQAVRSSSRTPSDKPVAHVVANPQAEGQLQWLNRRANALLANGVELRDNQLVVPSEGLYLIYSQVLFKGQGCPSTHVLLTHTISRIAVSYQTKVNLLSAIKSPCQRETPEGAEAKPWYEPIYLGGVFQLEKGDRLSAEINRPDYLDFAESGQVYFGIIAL
Sequence of Nonstructural protein 1 (Q194T2 whole entry): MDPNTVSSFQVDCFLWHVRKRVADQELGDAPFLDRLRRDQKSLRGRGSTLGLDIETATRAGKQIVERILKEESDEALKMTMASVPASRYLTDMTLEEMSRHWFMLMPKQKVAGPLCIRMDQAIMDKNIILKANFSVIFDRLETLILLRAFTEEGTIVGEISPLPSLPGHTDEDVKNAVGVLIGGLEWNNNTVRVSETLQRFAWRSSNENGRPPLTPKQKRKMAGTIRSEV

As usually defined, the AC50 is the concentration giving half of the maximal activity seen. Turning to `C/C(=N\NC(=O)COc1ccc([N+](=O)[O-])cc1)C(C)(C)C`, the AC50 was 28.2 µM (inconclusive) in data set [1] and “inconclusive” in data set [2].

Consider `O=C(Nc1ccc(Nc2ccncc2)cc1)c1ccc([N+](=O)[O-])cc1`, for which the AC50 in data set [3] was 7.22 µM (active); in data set [4], 33.1 µM (active).

In general, IC50 refers to the concentration at which inhibition is half-maximal. `O=C(Nc1ccc(F)cc1)c1ccc(CN2CCc3ccccc3C2)cc1`: the IC50 in data set [5] was > 20 µM (inactive); in data set [6], 3.11 µM (active); in data set [7], > 80 µM (inactive); in data set [8] it was 2.88 µM (active).

Regarding `COC(=O)[C@H]1[C@@H](c2ccccc2)[C@@]2(c3ccccc3)Oc3ccccc3[C@@]1(O)[C@@H]2O`, the AC50 in data set [9] was 3.98 µM (inconclusive); in [1], 3.16 µM (inconclusive); in data set [2], “inconclusive”.

As to `CNS(=O)(=O)c1cccc(C(=O)OCC(=O)/C=C2/N(C)c3ccccc3C2(C)C)c1`, the 50% inhibitory concentration (IC50) in data set [10] was 2.64 µM (active); in data set [11] it was 1.64 µM (active).

Regarding `Cc1ccc(N=C(S)N2CCN(C(=O)C3CCCO3)CC2)c(C)c1` (stereo unspecified), the AC50 was 22.4 µM (inconclusive) in data set [1], “inconclusive” in data set [12] and “inconclusive” in data set [2].

Consider `Oc1nncc(N/N=C/c2ccccn2)n1`, for which the IC50 is 1.44 µM (active) in data set [13], 32.2 µM (inactive) in [14] and 27.5 µM (inactive) in data set [15]. Further, the AC50 in [3] was 4.65 µM (active).

For `COc1cc(-c2n[nH]c(=S)n2/N=C/c2cccn2C)cc(OC)c1OC`, the IC50 in data set [16] was > 100 µM (inactive).
